According to ChEMBL document CHEMBL1201862, “PubChem BioAssay data set” (2004):
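48-hour exposure; five concentrations; linearly interpolated endpoints. GI50: concentration for 50% inhibition of growth.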 The source made the active and inactive calls. Rule as the data show it: active = GI50 up to about 1.1 µM and inactive = higher. Residues, ends and D or L forms follow the SMILES beside them. *: point of attachment. Boc = CC(C)(C)OC(=O)*; OBn = c1ccc(CO*)cc1

Key:
Test in all cases: inhibition of tumour cell growth, NCI panel, 48 h
[1] = system: SW-620
[2] = system: TK-10
[3] = system: A498
[4] = system: SNB-75
[5] = system: RXF 393
[6] = system: UACC-257
[7] = system: NCI-H23
[8] = system: HOP-92
[9] = system: MDA-MB-231
[10] = system: DU-145
[11] = system: KM12
[12] = system: U-251
[13] = system: M14
[14] = system: SNB-19
[15] = system: COLO 205
[16] = system: IGROV-1
[17] = system: LOX IMVI
[18] = system: A549
[19] = system: SF-295
[20] = system: Malme-3M
[21] = system: SR
[22] = system: NCI/ADR-RES
[23] = system: Hs-578T
[24] = system: SN12C
[25] = system: HL-60
[26] = system: 786-0
[27] = system: OVCAR-8
[28] = system: SK-MEL-2
[29] = system: SF-268
[30] = system: NCI-H522
[31] = system: EKVX
[32] = system: BT-549
[33] = system: MOLT-4
[34] = system: CCRF-CEM
[35] = system: MCF7
[36] = system: MDA-N
[37] = system: SK-MEL-5
[38] = system: HT-29
[39] = system: ACHN
[40] = system: SK-MEL-28
[41] = system: SK-OV-3
[42] = system: PC-3
[43] = system: K562
[44] = system: CAKI-1
[45] = system: T47D
[46] = system: NCI-H226
[47] = system: MDA-MB-435
[48] = system: HCT-116
[49] = system: UACC-62
[50] = system: OVCAR-4
[51] = system: UO-31
[52] = system: HCT-15
[53] = system: SF-539
[54] = system: OVCAR-5
[55] = system: RPMI-8226
[56] = system: NCI-H460
[57] = system: OVCAR-3
[58] = system: HOP-62

What does the source list for `CC(NC(=O)CNC(=O)OC(C)(C)C)C(=O)NC(Cc1ccccc1)C(=O)OCc1ccccc1` (stereo not drawn) (Boc-Gly-Ala-Phe-OBn; configuration not given here)?
GI50 [1]: > 100 µM (inactive); GI50 [2]: > 100 µM (inactive); GI50 [3]: > 100 µM (inactive); GI50 [4]: 56.2 µM (inactive); GI50 [5]: > 100 µM (inactive); GI50 [6]: > 100 µM (inactive); GI50 [7]: > 100 µM (inactive); GI50 [8]: > 100 µM (inactive); GI50 [9]: > 100 µM (inactive); GI50 [10]: > 100 µM (inactive); GI50 [11]: > 100 µM (inactive); GI50 [12]: > 100 µM (inactive); GI50 [13]: > 100 µM (inactive); GI50 [14]: > 100 µM (inactive); GI50 [15]: > 100 µM (inactive); GI50 [16]: > 100 µM (inactive); GI50 [17]: 7.23 µM (inactive); GI50 [18]: > 100 µM (inactive); GI50 [19]: > 100 µM (inactive); GI50 [20]: 63.4 µM (inactive); GI50 [21]: 23.8 µM (inactive); GI50 [22]: > 100 µM (inactive); GI50 [23]: 11.2 µM (inactive); GI50 [24]: > 100 µM (inactive); GI50 [25]: 36.3 µM (inactive); GI50 [26]: 27.9 µM (inactive); GI50 [27]: > 100 µM (inactive); GI50 [28]: > 100 µM (inactive); GI50 [29]: 86.9 µM (inactive); GI50 [30]: 68.4 µM (inactive); GI50 [31]: > 100 µM (inactive); GI50 [32]: > 100 µM (inactive); GI50 [33]: 36 µM (inactive); GI50 [34]: 40.9 µM (inactive); GI50 [35]: > 100 µM (inactive); GI50 [36]: > 100 µM (inactive); GI50 [37]: > 100 µM (inactive); GI50 [38]: 95.9 µM (inactive); GI50 [39]: > 100 µM (inactive); GI50 [40]: 36.5 µM (inactive); GI50 [41]: > 100 µM (inactive); GI50 [42]: > 100 µM (inactive); GI50 [43]: 40.3 µM (inactive); GI50 [44]: > 100 µM (inactive); GI50 [45]: > 100 µM (inactive); GI50 [46]: 75.7 µM (inactive); GI50 [47]: > 100 µM (inactive); GI50 [48]: 14.9 µM (inactive); GI50 [49]: > 100 µM (inactive); GI50 [50]: > 100 µM (inactive); GI50 [51]: > 100 µM (inactive); GI50 [52]: > 100 µM; GI50 [53]: > 100 µM (inactive); GI50 [54]: > 100 µM (inactive)

For `COc1nc2ncc([C@@H](O)[C@H](O)CO)nc2c(=O)n1C`, which GI50 [1] is on record?
The GI50 was > 100 µM (inactive).

What about the GI50 [2] of the same compound?
Its GI50 is > 100 µM (inactive).

What about the GI50 [3] of the same compound?
The GI50 was > 100 µM (inactive).

What about the GI50 [4] of the same compound?
Its GI50 is > 100 µM (inactive).

And the GI50 [5]?
Its GI50 is > 100 µM (inactive).

And the GI50 [6]?
The GI50 was > 100 µM (inactive).

And the GI50 [55]?
Its GI50 is > 100 µM (inactive).

What about the GI50 [8] of the same compound?
The GI50 was > 100 µM (inactive).

And the GI50 [9]?
The GI50 was > 100 µM (inactive).

What about the GI50 [10] of the same compound?
Its GI50 is > 100 µM (inactive).

And the GI50 [11]?
The GI50 was > 100 µM (inactive).

What about the GI50 [12] of the same compound?
Its GI50 is > 100 µM (inactive).

And the GI50 [13]?
The GI50 was > 100 µM (inactive).

What about the GI50 [14] of the same compound?
Its GI50 is > 100 µM (inactive).

And the GI50 [15]?
The GI50 was > 100 µM (inactive).

And the GI50 [16]?
Its GI50 is > 100 µM (inactive).

What about the GI50 [17] of the same compound?
The GI50 was > 100 µM (inactive).

And the GI50 [18]?
The GI50 was > 100 µM (inactive).

And the GI50 [19]?
The GI50 was > 100 µM (inactive).

And the GI50 [20]?
The GI50 was > 100 µM (inactive).

What about the GI50 [21] of the same compound?
Its GI50 is > 100 µM (inactive).

And the GI50 [22]?
Its GI50 is > 100 µM (inactive).

What about the GI50 [23] of the same compound?
The GI50 was > 100 µM (inactive).

What about the GI50 [24] of the same compound?
Its GI50 is > 100 µM (inactive).

And the GI50 [25]?
The GI50 was > 100 µM (inactive).

What about the GI50 [56] of the same compound?
Its GI50 is > 100 µM (inactive).

What about the GI50 [26] of the same compound?
Its GI50 is > 100 µM (inactive).

And the GI50 [27]?
Its GI50 is > 100 µM (inactive).

What about the GI50 [28] of the same compound?
Its GI50 is > 100 µM (inactive).

What about the GI50 [29] of the same compound?
The GI50 was > 100 µM (inactive).

And the GI50 [30]?
The GI50 was > 100 µM (inactive).

And the GI50 [31]?
The GI50 was > 100 µM (inactive).

And the GI50 [32]?
Its GI50 is > 100 µM (inactive).

What about the GI50 [33] of the same compound?
Its GI50 is > 100 µM (inactive).

And the GI50 [34]?
Its GI50 is > 100 µM (inactive).

What about the GI50 [35] of the same compound?
Its GI50 is > 100 µM (inactive).

What about the GI50 [36] of the same compound?
Its GI50 is > 100 µM (inactive).

And the GI50 [37]?
The GI50 was > 100 µM (inactive).

And the GI50 [38]?
The GI50 was > 100 µM (inactive).

What about the GI50 [39] of the same compound?
Its GI50 is > 100 µM (inactive).

And the GI50 [40]?
The GI50 was > 100 µM (inactive).

What about the GI50 [57] of the same compound?
Its GI50 is > 100 µM (inactive).

What about the GI50 [58] of the same compound?
Its GI50 is > 100 µM (inactive).

And the GI50 [41]?
Its GI50 is > 100 µM (inactive).

What about the GI50 [42] of the same compound?
Its GI50 is > 100 µM (inactive).

What about the GI50 [43] of the same compound?
The GI50 was > 100 µM (inactive).

And the GI50 [44]?
The GI50 was > 100 µM (inactive).

What about the GI50 [45] of the same compound?
The GI50 was > 100 µM (inactive).

And the GI50 [46]?
The GI50 was > 100 µM (inactive).

What about the GI50 [47] of the same compound?
Its GI50 is > 100 µM (inactive).

And the GI50 [48]?
The GI50 was > 100 µM (inactive).

What about the GI50 [49] of the same compound?
Its GI50 is > 100 µM (inactive).

And the GI50 [50]?
The GI50 was > 100 µM (inactive).

What about the GI50 [51] of the same compound?
The GI50 was > 100 µM (inactive).

And the GI50 [52]?
The GI50 was over 100 µM.

What about the GI50 [53] of the same compound?
The GI50 was > 100 µM (inactive).

What about the GI50 [54] of the same compound?
Its GI50 is > 100 µM (inactive).
